The subject of experiment [1] is MV4-11 cells (FLT3-ITD+/+). Description: Inhibition of cell proliferation by MTT experiment, MV4-11. The format is cell-based, human. To be noted: MTT, 72 h, read-out: IC50 value on cell proliferation inhibition, MV4-11 FLT3-ITD+/+. The method in brief:
(§1)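 MTT assay in MV4-11, MOLM-13 (FLT3-ITD) and SET-2 (JAK2 V617F) cells at 10,000–15,000 cells/well in IMDM with 10% FBS. Cells are exposed to compound for 72 h at 37 °C, then to MTT for 1–3 h. IC50 is fitted from inhibition rates across concentrations.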

Experiment [2] concerns MOLM-13 cells (FLT3-ITD-/+). The experiment in a line: Inhibition of cell proliferation by MTT experiment, MOLM-13. Type of experiment: cell-based, human. The settings on record: MTT, 72 h, read-out: IC50 value on cell proliferation inhibition, MOLM-13 FLT3-ITD-/+. The method in brief: as §1
For another experiment, the system named is SET-2 cells (JAK2 V617F). Description: Inhibition of cell proliferation by MTT experiment, SET-2. Type of experiment: cell-based. To be noted: MTT, 72 h, read-out: IC50 value on cell proliferation inhibition, SET-2 (V617F). In outline: as §1
Another experiment has as its target T1, FLT3 (Homo sapiens, UniProt P36888).
T1 construct: purchased Eurofins
T1 sequence (P36888 27-993): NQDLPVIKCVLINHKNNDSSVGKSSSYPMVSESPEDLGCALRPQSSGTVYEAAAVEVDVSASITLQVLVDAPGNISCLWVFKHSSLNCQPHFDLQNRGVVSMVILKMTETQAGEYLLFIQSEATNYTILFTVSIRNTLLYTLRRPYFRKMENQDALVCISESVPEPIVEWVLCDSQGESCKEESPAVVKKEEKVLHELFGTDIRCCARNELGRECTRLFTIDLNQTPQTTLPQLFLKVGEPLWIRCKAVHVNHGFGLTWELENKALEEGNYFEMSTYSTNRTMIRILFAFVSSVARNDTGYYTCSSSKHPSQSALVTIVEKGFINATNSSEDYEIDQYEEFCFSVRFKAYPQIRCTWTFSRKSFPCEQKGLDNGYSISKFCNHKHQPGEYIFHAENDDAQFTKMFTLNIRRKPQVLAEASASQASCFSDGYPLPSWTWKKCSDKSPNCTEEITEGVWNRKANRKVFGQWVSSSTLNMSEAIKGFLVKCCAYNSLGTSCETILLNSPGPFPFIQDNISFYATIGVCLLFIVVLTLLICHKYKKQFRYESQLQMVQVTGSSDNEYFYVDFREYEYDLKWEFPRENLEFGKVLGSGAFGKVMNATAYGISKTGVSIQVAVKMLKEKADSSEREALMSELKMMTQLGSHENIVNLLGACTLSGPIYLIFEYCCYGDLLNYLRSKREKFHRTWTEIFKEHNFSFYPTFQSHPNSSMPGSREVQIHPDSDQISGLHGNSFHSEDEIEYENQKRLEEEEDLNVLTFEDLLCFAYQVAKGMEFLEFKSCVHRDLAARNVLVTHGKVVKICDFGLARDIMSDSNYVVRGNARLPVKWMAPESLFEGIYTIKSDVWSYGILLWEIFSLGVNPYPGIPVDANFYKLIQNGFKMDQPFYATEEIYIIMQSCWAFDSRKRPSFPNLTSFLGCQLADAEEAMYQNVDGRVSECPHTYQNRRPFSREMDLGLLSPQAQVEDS
Description: In vitro kinase activity experiment, FLT3. Type of experiment: biochemical. To be noted: for inhibition at 0.5 µM: 40 min, read-out: Kinase activity @ 500 nM (%) FLT3. The method in brief: (§2)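 Radiometric filter-binding kinase assay: each kinase with its substrate, γ33P-ATP, 10 mM magnesium acetate and graded compound in 8 mM MOPS pH 7.0, 0.2 mM EDTA, 10 mM MnCl2. MgATP-started, 40 min at room temperature, stopped with 3% phosphate. Spotted on Filtermat A, washed, scintillation-counted.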

A further experiment addresses T2, JAK2 (Homo sapiens, UniProt O60674).
T2 construct: purchased Eurofins
The experiment in a line: In vitro kinase activity experiment, JAK2. Type of experiment: biochemical. To be noted: for Kinase activity @ 500 nM (%) JAK2: inhibition rate of enzyme at 500 nM, measured by Eurofins. In outline: as §2

The target in a further experiment is T3, JAK1 (Homo sapiens, UniProt P23458).
T3 construct: purchased Eurofins
T3 sequence (P23458 whole entry): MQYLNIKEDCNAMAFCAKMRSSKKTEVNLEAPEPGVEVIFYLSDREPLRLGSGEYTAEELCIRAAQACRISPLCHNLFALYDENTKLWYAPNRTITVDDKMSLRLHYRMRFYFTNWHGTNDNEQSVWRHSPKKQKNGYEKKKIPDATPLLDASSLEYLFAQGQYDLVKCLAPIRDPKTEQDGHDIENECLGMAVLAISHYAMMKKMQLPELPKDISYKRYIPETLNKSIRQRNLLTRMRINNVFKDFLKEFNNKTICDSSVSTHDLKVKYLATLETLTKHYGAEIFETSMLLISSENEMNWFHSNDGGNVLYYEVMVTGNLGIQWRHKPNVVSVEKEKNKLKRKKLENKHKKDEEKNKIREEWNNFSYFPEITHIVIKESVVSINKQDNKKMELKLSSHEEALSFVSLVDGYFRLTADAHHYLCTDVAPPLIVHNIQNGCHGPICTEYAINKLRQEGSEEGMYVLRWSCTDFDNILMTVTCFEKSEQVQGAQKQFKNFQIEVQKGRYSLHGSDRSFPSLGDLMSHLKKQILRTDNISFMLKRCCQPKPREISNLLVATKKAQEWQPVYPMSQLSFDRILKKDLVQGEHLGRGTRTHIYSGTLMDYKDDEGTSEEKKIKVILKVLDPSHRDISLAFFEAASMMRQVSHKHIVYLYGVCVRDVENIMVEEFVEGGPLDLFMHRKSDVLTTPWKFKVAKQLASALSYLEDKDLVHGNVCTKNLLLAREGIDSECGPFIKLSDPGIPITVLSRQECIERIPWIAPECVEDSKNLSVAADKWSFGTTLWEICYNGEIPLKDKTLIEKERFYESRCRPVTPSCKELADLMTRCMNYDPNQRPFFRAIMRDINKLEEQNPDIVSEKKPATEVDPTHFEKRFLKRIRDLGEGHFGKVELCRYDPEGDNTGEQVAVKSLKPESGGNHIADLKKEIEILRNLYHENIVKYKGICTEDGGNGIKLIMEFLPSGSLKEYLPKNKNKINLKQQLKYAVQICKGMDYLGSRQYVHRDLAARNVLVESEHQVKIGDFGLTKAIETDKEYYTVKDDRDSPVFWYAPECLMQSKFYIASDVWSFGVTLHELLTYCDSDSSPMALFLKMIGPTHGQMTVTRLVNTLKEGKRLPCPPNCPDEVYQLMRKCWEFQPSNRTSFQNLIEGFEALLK
The experiment in a line: In vitro kinase activity experiment, JAK1. Type of experiment: biochemical. As to the method: Buffer solution ([…], pH 7.0, 0.2 mm EDTA, 10 mM mncl2), kinase to be tested, substrate of kinase to be tested, 10 mM magnesium acetate and γ33P-ATP solution, and compounds with different concentrations were added to a reaction tube in turn, then MgATP was added to initiate the enzyme reaction process, and incubated at room temperature for 40 min. Then, the reaction was terminated with 5 μl of […], and 10 μl of the reaction solution was titrated onto the Filtermat A membrane, washed with 75 mM phosphate solution for three times, each time for 5 min., and then washed with methanol once. Finally, the Filtermat A membrane was dried and the scintillation count was carried out.

[3] abbreviates: inhibition rate of enzyme at 500 nM, measured by Eurofins.

Each structure is given as a SMILES string. Like-named read-outs stand apart in the source and are kept apart here.

T2 sequence (O60674 whole entry): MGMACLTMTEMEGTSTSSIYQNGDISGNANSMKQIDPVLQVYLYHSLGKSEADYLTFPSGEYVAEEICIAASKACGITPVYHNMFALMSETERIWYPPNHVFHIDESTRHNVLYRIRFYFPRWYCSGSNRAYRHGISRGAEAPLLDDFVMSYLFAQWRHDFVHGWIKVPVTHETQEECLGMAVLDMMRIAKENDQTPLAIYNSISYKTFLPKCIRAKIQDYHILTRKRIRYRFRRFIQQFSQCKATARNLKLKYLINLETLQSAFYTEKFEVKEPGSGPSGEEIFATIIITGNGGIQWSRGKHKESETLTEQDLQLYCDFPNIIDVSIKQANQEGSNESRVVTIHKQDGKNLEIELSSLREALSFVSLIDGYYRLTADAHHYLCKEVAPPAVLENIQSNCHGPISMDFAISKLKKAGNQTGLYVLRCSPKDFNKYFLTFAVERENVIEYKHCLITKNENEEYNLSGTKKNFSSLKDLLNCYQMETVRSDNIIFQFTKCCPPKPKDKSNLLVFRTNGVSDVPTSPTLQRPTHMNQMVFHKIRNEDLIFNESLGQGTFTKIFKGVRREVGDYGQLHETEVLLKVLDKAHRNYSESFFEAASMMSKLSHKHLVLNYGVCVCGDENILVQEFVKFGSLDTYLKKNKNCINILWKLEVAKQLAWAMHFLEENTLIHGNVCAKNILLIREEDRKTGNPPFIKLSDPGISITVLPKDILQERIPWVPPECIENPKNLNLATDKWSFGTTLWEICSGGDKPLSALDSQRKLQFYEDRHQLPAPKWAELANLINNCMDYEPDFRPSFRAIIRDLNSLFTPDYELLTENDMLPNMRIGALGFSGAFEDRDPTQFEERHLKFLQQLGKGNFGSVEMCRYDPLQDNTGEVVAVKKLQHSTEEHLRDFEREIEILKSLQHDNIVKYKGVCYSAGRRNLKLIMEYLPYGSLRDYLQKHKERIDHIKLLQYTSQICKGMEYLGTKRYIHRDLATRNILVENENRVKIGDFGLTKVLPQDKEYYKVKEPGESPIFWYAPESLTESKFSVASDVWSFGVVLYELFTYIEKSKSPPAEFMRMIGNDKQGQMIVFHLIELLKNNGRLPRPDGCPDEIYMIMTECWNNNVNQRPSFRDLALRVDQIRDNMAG

As for `Cc1cnc(Nc2ccc(N3CCC(N(C)C)CC3)c(F)c2)nc1-c1cnn(C(C)C)c1` [CLJ-38, 5-methyl-N-(3-fluoro-4-(4-dimethylaminopiperidine-1-yl)phenyl)-4-(1-isopropyl-1H-pyrazole-4-yl) pyrimidine-2-amine], the IC50 was 0.01 to 0.1 µM in experiment [1] (Homo sapiens, MV4-11); 0.1 to 1 µM in experiment [2] (Homo sapiens, MOLM-13); 0.1 to 1 µM in the experiment with SET-2 cells (JAK2 V617F) (Homo sapiens, SET-2); 0.009 µM on FLT3; 0.002 µM against JAK2; 0.058 µM on JAK1. Besides, the inhibition at 0.5 µM on FLT3 (setting [3]) is 72%. Also, the “Kinase activity @ 500 nM (%) JAK2” value at JAK2 was determined as 93%.

With `CCCCN1CCN(c2ccc(Nc3ncc(F)c(-c4cnn(C(C)C)c4)n3)nc2)CC1` [CLJ-20, 5-fluoro-N-(5-(4-butylpiperazine-1-yl)pyridine-2-yl)-4-(1-isopropyl-1H-pyrazole-4-yl) pyrimidine-2-amine], the IC50 in experiment [1] (Homo sapiens, MV4-11) lay in the range of 0.1 to 1 µM; in experiment [2] (Homo sapiens, MOLM-13), 0.1 to 1 µM; in the experiment on SET-2 cells (JAK2 V617F) (Homo sapiens, SET-2) it was 0.1 to 1 µM. The inhibition at 0.5 µM at FLT3 (setting [3]) stood at 95%. For the same compound, the “Kinase activity @ 500 nM (%) JAK2” value on JAK2 came out at 97%.

Take `Cc1cnc(Nc2ccc(NC(=O)[C@H]3CCCN3)c(F)c2)nc1-c1cnn(C(C)C)c1` [CLJ-93, (R)-2-((2-fluoro-4-((4-(1-isopropyl-1H-pyrazole-4-yl)-5-methylpyrimidine-2-yl)amino)phenyl)carbamoyl) pyrrolidine]: the IC50 fell in the range of 0.01 to 0.1 µM in experiment [1] (Homo sapiens, MV4-11); 0.01 to 0.1 µM in experiment [2] (Homo sapiens, MOLM-13); 0.1 to 1 µM in the experiment on SET-2 cells (JAK2 V617F) (Homo sapiens, SET-2). In addition, the inhibition at 0.5 µM on FLT3 (setting [3]) was 97%. In addition, the “Kinase activity @ 500 nM (%) JAK2” value on JAK2 is recorded as 100%.

For `C=CS(=O)(=O)NCc1ccc(Nc2ncc(C)c(-c3cnn(C(C)C)c3)n2)cc1` [CLJ-89], the IC50 in experiment [1] (Homo sapiens, MV4-11) is 0.1 to 1 µM; in experiment [2] (Homo sapiens, MOLM-13), over 1 µM; in the experiment on SET-2 cells (JAK2 V617F) (Homo sapiens, SET-2), 0.01 to 0.1 µM. Besides, the inhibition at 0.5 µM on FLT3 (setting [3]) came out at 47%. Moreover, the “Kinase activity @ 500 nM (%) JAK2” value on JAK2 is reported as 99%.

`CC(C)n1cc(-c2nc(Nc3ccc(N4CCN(C)CC4)cc3F)ncc2F)cn1` [CLJ-23, 5-fluoro-N-(2-fluoro-4-(4-methylpiperazine-1-yl)phenyl)-4-(1-isopropyl-1H-pyrazol-4-yl) pyrimidine-2-amine]: the IC50 is 0.1 to 1 µM in experiment [1] (Homo sapiens, MV4-11); over 1 µM in experiment [2] (Homo sapiens, MOLM-13); 0.1 to 1 µM with SET-2 cells (JAK2 V617F) (Homo sapiens, SET-2). Moreover, the inhibition at 0.5 µM on FLT3 (setting [3]) stood at 40%. The “Kinase activity @ 500 nM (%) JAK2” value at JAK2 is on record as 49%.

Turning to `Cc1cnc(Nc2ccc(N3CCC4(CC3)CN(CCO)C4)c(F)c2)nc1-c1cnn(C(C)C)c1` [CLJ-67, N-(3-fluoro-4-(2,7-diazaspiro[3.5]nonane-2-hydroxyethyl-7-yl)phenyl)-4-(1-isopropyl-1H-pyrazole-4-yl)-5-methylpyrimidine-2-amine], the IC50 in experiment [1] is 0.01 to 0.1 µM; in experiment [2], 0.1 to 1 µM; with SET-2 cells (JAK2 V617F), 0.1 to 1 µM. Further, on FLT3 (setting [3]), the “Kinase activity @ 500 nM (%) FLT3” value was found to be 98%. In addition, on JAK2, the “Kinase activity @ 500 nM (%) JAK2” value is reported as 96%.

On to `CC(C)n1cc(-c2nc(Nc3ccc(N4CCN(C)CC4)cc3)ncc2F)cn1` [CLJ-22, 5-fluoro-N-(4-(4-methylpiperazine-1-yl)phenyl)-4-(1-isopropyl-1H-pyrazol-4-yl) pyrimidine-2-amine], for which the IC50 lay in the range of 0.1 to 1 µM in experiment [1] (Homo sapiens, MV4-11); 0.1 to 1 µM in experiment [2] (Homo sapiens, MOLM-13); 0.1 to 1 µM in the experiment on SET-2 cells (JAK2 V617F) (Homo sapiens, SET-2). The inhibition at 0.5 µM at FLT3 (setting [3]) is 80%. Also, the “Kinase activity @ 500 nM (%) JAK2” value on JAK2 was found to be 79%.

`Cc1cnc(Nc2ccc(N3CCC(N(C)CCCCO)CC3)c(F)c2)nc1-c1cnn(C(C)C)c1` [CLJ-46, 5-methyl-N-(3-fluoro-4-(4-N-hydroxybutyl-4-N-methylaminopiperidine-1-yl)phenyl)-4-(1-isopropyl-1H-pyrazole-4-yl) pyrimidine-2-amine]: the IC50 in experiment [1] (Homo sapiens, MV4-11) was 0.001 to 0.01 µM; in experiment [2] (Homo sapiens, MOLM-13), 0.01 to 0.1 µM; in the experiment on SET-2 cells (JAK2 V617F) (Homo sapiens, SET-2), 0.1 to 1 µM. Besides, on FLT3 (setting [3]), the inhibition at 0.5 µM came out at 98%. Also, the “Kinase activity @ 500 nM (%) JAK2” value at JAK2 stood at 102%.

With `Cc1cnc(Nc2ccc(CNC(=O)CCCN(C)C)cc2)nc1-c1cnn(C(C)C)c1` [CLJ-83, N-(4-((4-(1-isopropyl-1H-pyrazole-4-yl)-5-methylpyrimidine-2-yl)amino)benzyl)-4-dimethylaminobutyramide], the IC50 in experiment [1] (Homo sapiens, MV4-11) fell in the range of 0.01 to 0.1 µM; in experiment [2] (Homo sapiens, MOLM-13), 0.01 to 0.1 µM; in the experiment on SET-2 cells (JAK2 V617F) (Homo sapiens, SET-2), 0.1 to 1 µM. In addition, the inhibition at 0.5 µM on FLT3 (setting [3]) amounted to 89%. Also, the “Kinase activity @ 500 nM (%) JAK2” value on JAK2 was determined as 88%.

Consider `CCN1CCN(Cc2ccc(Nc3ncc(F)c(-c4cnn(C(C)C)c4)n3)nc2)CC1` [CLJ-21, 5-fluoro-N-(5-((4-ethylpiperazine-1-yl)methyl)pyridine-2-yl)-4-(1-isopropyl-1H-pyrazole-4-yl) pyrimidine-2-amine], for which the IC50 fell in the range of 0.1 to 1 µM in experiment [1] (Homo sapiens, MV4-11); 0.1 to 1 µM in experiment [2] (Homo sapiens, MOLM-13); 0.1 to 1 µM in the experiment with SET-2 cells (JAK2 V617F) (Homo sapiens, SET-2). The inhibition at 0.5 µM at FLT3 (setting [3]) turned out to be 75%. The “Kinase activity @ 500 nM (%) JAK2” value at JAK2 came out at 89%.

`Cc1cnc(Nc2ccc(CCNC(=O)CCl)cc2)nc1-c1cnn(C(C)C)c1` [CLJ-86, N-(4-((4-(1-isopropyl-1H-pyrazole-4-yl)-5-methylpyrimidine-2-yl)amino)phenethyl)-2-chloroacetamide]: the IC50 in experiment [1] (Homo sapiens, MV4-11) was 0.1 to 1 µM; in experiment [2] (Homo sapiens, MOLM-13), over 1 µM; in the experiment with SET-2 cells (JAK2 V617F) (Homo sapiens, SET-2), over 1 µM. On FLT3 (setting [3]), the inhibition at 0.5 µM was determined as 45%. For the same compound, the “Kinase activity @ 500 nM (%) JAK2” value at JAK2 is reported as 37%.

Turning to `CCOCCN(C)C1CCN(c2ccc(Nc3ncc(C)c(-c4cnn(C(C)C)c4)n3)cc2F)CC1` [CLJ-48, 5-methyl-N-(3-fluoro-4-(4-N-ethoxyethyl-4-N-methylaminopiperidine-1-yl)phenyl)-4-(1-isopropyl-1H-pyrazole-4-yl) pyrimidine-2-amine], the IC50 lay in the range of 0.1 to 1 µM in experiment [1] (Homo sapiens, MV4-11); 0.1 to 1 µM in experiment [2] (Homo sapiens, MOLM-13); 0.1 to 1 µM with SET-2 cells (JAK2 V617F) (Homo sapiens, SET-2). Moreover, the inhibition at 0.5 µM on FLT3 (setting [3]) worked out at 96%. The “Kinase activity @ 500 nM (%) JAK2” value on JAK2 is given as 93%.

Regarding `CCCn1cc(-c2nc(Nc3ccc(N4CCN(C)CC4)cc3F)ncc2F)cn1` [CLJ-6, 5-fluoro-N-(2-fluoro-4-(4-methylpiperazine-1-yl)phenyl)-4-(1-propyl-1H-pyrazol-4-yl) pyrimidine-2-amine], the IC50 in experiment [1] (Homo sapiens, MV4-11) is over 1 µM; in experiment [2] (Homo sapiens, MOLM-13), over 1 µM; with SET-2 cells (JAK2 V617F) (Homo sapiens, SET-2) it was over 1 µM. Besides, the inhibition at 0.5 µM on FLT3 (setting [3]) was determined as 34%. In addition, the “Kinase activity @ 500 nM (%) JAK2” value on JAK2 is listed as 30%.

These data come from patent US12428394B2, “2,4-disubstituted pyrimidine derivative, preparation method therefor and use thereof” (CHENGDU ZENITAR BIOMEDICAL TECHNOLOGY CO., LTD., priority 2019, dated 2025).
